Measurements taken from paper PMC6950567, “Evaluation of Marine Diindolinonepyrane in Vitro and in Vivo: Permeability Characterization in Caco-2 Cells Monolayer and Pharmacokinetic Properties in Beagle Dogs” (Marine Drugs, 2019).
Entries after “also recorded” stand apart in the source; their conditions may differ. Read-outs that look alike come from different tables or passages of the source.

How the values were obtained:
Caco-2 cells monolayer = Caco-2 cells monolayer absorption and bidirectional transport experiment; assay type: in vitro ADME, human
Description: (§1) The samples included three control drugs (fenoterol, propranolol, and digoxin) and 2,5-BHPA. […] For transfer in the AP→BL direction, 0.075 mL drug solution was added to the AP side as the supply pool, and 0.25 mL HBSS solution was added to the BL side as the receiving pool. In the BL→AP direction, 0.25 mL compound solution was added to the BL side as the supply pool, and 0.075 mL HBSS solution was added to the AP side as the receiving pool. The transwell plate was then cultured in an incubator at 37 °C for 2 h. Samples on the AP side and BL side were collected, respectively. Then, acetonitrile containing an internal label was added to each upper chamber to lyse transport membranes. The total recovery was calculated by collecting the amount of lead compound absorbed on the membrane surface or accumulated in the cell. Finally, the concentration of each sample was calculated as the ratio of the peak area between the compound and the inner target through mass spectrum analysis (API 4000).
(§2) Papp = (dCr/dt) × Vr/(A × C0)(2) where dCr/dt is the cumulative compound concentration per unit of time (µM/s); Vr is the volume in the receiving hole (mL); A is the transport membrane area; and C0 is the compound initiation concentration (µM).

[1] = as above; assay type: in vitro ADME, human; conditions: human
Description: as §1, §2

P-gp = target: T1, P-gp (Homo sapiens, UniProt P08183); assay: P-gp substrate assessment from Caco-2 bidirectional transport; assay type: in vitro ADME; conditions: suggested from Caco-2 transport with 0.1% BSA
T1 construct: host or cells: Caco-2
T1 sequence (P08183 whole entry): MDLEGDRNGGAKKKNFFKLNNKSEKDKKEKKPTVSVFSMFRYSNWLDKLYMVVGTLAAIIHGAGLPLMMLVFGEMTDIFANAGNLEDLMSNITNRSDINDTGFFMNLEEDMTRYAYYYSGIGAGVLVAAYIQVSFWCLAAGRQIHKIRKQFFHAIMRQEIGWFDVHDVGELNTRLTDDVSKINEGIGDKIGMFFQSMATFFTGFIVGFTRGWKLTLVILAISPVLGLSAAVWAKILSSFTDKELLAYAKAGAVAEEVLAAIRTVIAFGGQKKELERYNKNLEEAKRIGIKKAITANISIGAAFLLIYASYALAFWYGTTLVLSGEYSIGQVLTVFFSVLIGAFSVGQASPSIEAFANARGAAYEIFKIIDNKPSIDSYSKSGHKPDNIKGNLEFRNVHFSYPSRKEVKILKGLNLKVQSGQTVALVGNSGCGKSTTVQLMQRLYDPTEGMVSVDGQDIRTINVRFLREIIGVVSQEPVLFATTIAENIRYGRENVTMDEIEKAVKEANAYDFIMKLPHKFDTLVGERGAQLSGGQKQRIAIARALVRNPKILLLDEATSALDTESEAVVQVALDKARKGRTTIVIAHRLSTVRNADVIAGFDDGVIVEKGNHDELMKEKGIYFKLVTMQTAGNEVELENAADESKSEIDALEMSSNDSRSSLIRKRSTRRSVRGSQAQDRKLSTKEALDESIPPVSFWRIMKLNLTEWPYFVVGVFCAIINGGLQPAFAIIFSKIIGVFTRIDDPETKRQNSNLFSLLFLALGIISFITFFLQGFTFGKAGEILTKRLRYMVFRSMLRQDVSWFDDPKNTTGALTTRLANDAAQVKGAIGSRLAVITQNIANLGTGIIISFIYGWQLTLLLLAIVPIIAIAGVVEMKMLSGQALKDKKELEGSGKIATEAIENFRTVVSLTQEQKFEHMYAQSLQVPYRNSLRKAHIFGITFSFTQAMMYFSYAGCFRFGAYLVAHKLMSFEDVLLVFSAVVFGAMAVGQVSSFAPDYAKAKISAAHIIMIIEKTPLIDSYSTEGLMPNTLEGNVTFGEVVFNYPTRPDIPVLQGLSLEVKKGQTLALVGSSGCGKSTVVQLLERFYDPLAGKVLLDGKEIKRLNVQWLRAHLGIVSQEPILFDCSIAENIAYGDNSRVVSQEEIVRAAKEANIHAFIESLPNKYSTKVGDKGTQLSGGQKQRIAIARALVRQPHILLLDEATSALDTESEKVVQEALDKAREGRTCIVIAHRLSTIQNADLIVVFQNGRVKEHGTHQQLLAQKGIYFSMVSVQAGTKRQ
Description: The Caco-2 cell model was established successfully, and the transwell plate was then rinsed with HBSS solution three times and cultured in an incubator at 37 °C for 30 min to remove the interfering substances on the cell surface. For transfer in the AP→BL direction, 0.075 mL drug solution was added to the AP side as the supply pool, and 0.25 mL HBSS solution was added to the BL side as the receiving pool. In the BL→AP direction, 0.25 mL compound solution was added to the BL side as the supply pool, and 0.075 mL HBSS solution was added to the AP side as the receiving pool. The transwell plate was then cultured in an incubator at 37 °C for 2 h. Samples on the AP side and BL side were collected, respectively. Then, acetonitrile containing an internal label was added to each upper chamber to lyse transport membranes. The total recovery was calculated by collecting the amount of lead compound absorbed on the membrane surface or accumulated in the cell. Finally, the concentration of each sample was calculated as the ratio of the peak area between the compound and the inner target through mass spectrum analysis (API 4000). […] Vr is the volume in the receiving hole (mL); A is the transport membrane area; and C0 is the compound initiation concentration (µM). […]

[2] = parameters: method as in PMID 24216275; conditions: rats, cited from earlier work
[3] = Short-term stability in beagle dog plasma; assay type: in vitro ADME; conditions: 24 h, residual/initial
Description: The stability of 2,5-BHPA was assayed at 1, 100, and 400 mg/L. The short-term stability of 2,5-BHPA stored at 37 °C was determined after 24 h. Stability was defined as the amount of 2,5-BHPA residual after 24 h divided by the initial amount.

[4] = Tissue distribution after intravenous injection in beagle dogs; assay type: in vivo; conditions: 7.5 mg/kg
Description: Moreover, another three dogs were fasted for 24 h with water ad libidum for the tissue distribution study. 2,5-BHPA was administered by intravenous injection at 7.5 mg/kg. Subsequently, their brain, stomach (emptied of gastric contents), heart, large intestine (emptied of gastric contents), liver, kidneys, spleen, urine, lungs, spermary, small intestine (emptied of gastric contents), feces, muscle, bile of dogs were removed at 60 min after compound administration. The tissues were flushed with normal saline, dried, weighed, and homogenized in proper methanol (methanol:sample = 5:1, V/V). The tissue samples were centrifuged at 5000× g for 15 min at RT, and the supernatants were filtered with a 0.22 µm disposable syringe filter for HPLC detection.

[5] = 5 µM, 0.1% bull serum albumin added
[6] = 15 µM, 0.1% bull serum albumin added
[7] = 25 µM, 0.1% bull serum albumin added

## CC(C)=CCCC(C)=CCCC1(C)Oc2c(c(O)cc3c2CN(CCCC(C(=O)O)N2Cc4c(cc(O)c5c4OC(C)(CCC=C(C)CCC=C(C)C)C(O)C5)C2=O)C3=O)CC1O (stereo not shown) [2,5-BHPA, 2,5-Bis-[8-(4,8-dimethyl-nona-3,7-dienyl)-5,7-dihydroxy-8-methyl-3-keto-1,2,7,8-tertahydro-6H-pyran[a]isoindol-2-yl]-pentanoic acid]
Caco-2 cells monolayer; 0.5 μM, no BSA
  Recoveries AP to BL: 8.745 ± 0.155%
  Recoveries BL to AP: 25.54 ± 1.55%
  Total Recoveries AP to BL: 35.77 ± 1.29%
  Total Recoveries BL to AP: 25.48 ± 1.13%
Caco-2 cells monolayer; 2 µM to 25 µM
  transport mechanism in the Caco-2 model: may involve passive diffusion
Caco-2 cells monolayer; 2 μM, no BSA
  Recoveries AP to BL: 13.419 ± 0.566%
  Recoveries BL to AP: 47.16 ± 1.32%
  Total Recoveries AP to BL: 39.67 ± 1.47%
  Total Recoveries BL to AP: 47.69 ± 2.10%
Caco-2 cells monolayer; [5]
  Recoveries AP to BL: 85.52 ± 2.34%
  Recoveries BL to AP: 96.32 ± 5.15%
  Total Recoveries AP to BL: 92.83 ± 3.44%
  Total Recoveries BL to AP: 96.41 ± 3.52%
Caco-2 cells monolayer; 5 μM, no BSA
  Recoveries AP to BL: 26.76 ± 1.02%
  Recoveries BL to AP: 52.42 ± 2.20%
  Total Recoveries AP to BL: 52.34 ± 4.34%
  Total Recoveries BL to AP: 53.02 ± 2.01%
Caco-2 cells monolayer; [6]
  Recoveries AP to BL: 84.85 ± 3.36%
  Recoveries BL to AP: 96.18 ± 6.56%
  Total Recoveries AP to BL: 92.83 ± 4.26%
  Total Recoveries BL to AP: 96.97 ± 4.32%
Caco-2 cells monolayer; [7]
  Recoveries AP to BL: 82.25 ± 2.28%
  Recoveries BL to AP: 89.52 ± 4.19%
  Total Recoveries AP to BL: 90.91 ± 4.63%
  Total Recoveries BL to AP: 89.63 ± 3.26%
Caco-2 cells monolayer; Papp ≤ 2.5 (×10^−6 cm·s^−1) indicated low permeability
  permeability classification: low permeability
[1]; Caco-2, 0.5 μM, no BSA
  efflux ratio at 2 h, 0.5 µM: 1.13
[1]; Caco-2, 0.5 μM, no BSA, 2 h, read-out: Mean Papp AP to BL
  Papp A→B at 2 h, 0.5 µM: 0.493 ± 0.016 ×10⁻⁶ cm/s
[1]; Caco-2, 0.5 μM, no BSA, 2 h, read-out: Mean Papp BL to AP
  Papp B→A at 2 h, 0.5 µM: 0.555 ± 0.09 ×10⁻⁶ cm/s
[1]; Caco-2, 2 μM, no BSA
  efflux ratio at 2 h, 2 µM: 1.55
[1]; Caco-2, 2 μM, no BSA, 2 h, read-out: Mean Papp AP to BL
  Papp A→B at 2 h, 2 µM: 0.048 ± 0.006 ×10⁻⁶ cm/s
[1]; Caco-2, 2 μM, no BSA, 2 h, read-out: Mean Papp BL to AP
  Papp B→A at 2 h, 2 µM: 0.065 ± 0.005 ×10⁻⁶ cm/s
[1]; Caco-2, 5 µM, 0.1% bull serum albumin added
  efflux ratio at 2 h, 5 µM: 1.56
[1]; Caco-2, 5 µM, 0.1% bull serum albumin added, read-out: Mean Papp AP to BL
  Papp A→B at 2 h, 5 µM: 0.097 ± 0.005 ×10⁻⁶ cm/s
[1]; Caco-2, 5 µM, 0.1% bull serum albumin added, read-out: Mean Papp BL to AP
  Papp B→A at 2 h, 5 µM: 0.153 ± 0.012 ×10⁻⁶ cm/s
[1]; Caco-2, 5 μM, no BSA
  efflux ratio at 2 h, 5 µM: 1.06
[1]; Caco-2, 5 μM, no BSA, 2 h, read-out: Mean Papp AP to BL
  Papp A→B at 2 h, 5 µM: 0.044 ± 0.003 ×10⁻⁶ cm/s
[1]; Caco-2, 5 μM, no BSA, 2 h, read-out: Mean Papp BL to AP
  Papp B→A at 2 h, 5 µM: 0.043 ± 0.004 ×10⁻⁶ cm/s
[1]; Caco-2, 15 µM, 0.1% bull serum albumin added
  efflux ratio at 2 h, 15 µM: 2.91
[1]; Caco-2, 15 µM, 0.1% bull serum albumin added, read-out: Mean Papp AP to BL
  Papp A→B at 2 h, 15 µM: 0.045 ± 0.002 ×10⁻⁶ cm/s
[1]; Caco-2, 15 µM, 0.1% bull serum albumin added, read-out: Mean Papp BL to AP
  Papp B→A at 2 h, 15 µM: 0.132 ± 0.035 ×10⁻⁶ cm/s
[1]; Caco-2, 25 µM, 0.1% bull serum albumin added
  efflux ratio at 2 h, 25 µM: 1.49
[1]; Caco-2, 25 µM, 0.1% bull serum albumin added, read-out: Mean Papp AP to BL
  Papp A→B at 2 h, 25 µM: 0.146 ± 0.009 ×10⁻⁶ cm/s
[1]; Caco-2, 25 µM, 0.1% bull serum albumin added, read-out: Mean Papp BL to AP
  Papp B→A at 2 h, 25 µM: 0.216 ± 0.031 ×10⁻⁶ cm/s
[1]; Caco-2, text summary of Table 2, 0.1% BSA added, read-out: Papp, AP→BL or BL→AP direction
  Papp at 2 h: ≤ 2.5 ×10⁻⁶ cm/s
[1]; Caco-2, text summary of Table 2, 0.1% BSA added, read-out: total recovery rate
  recovery at 2 h: > 90%
[1]; Caco-2, text summary, no BSA, over the concentrations tested, read-out: Papp range
  Papp at 2 h: 0.04 to 0.49 ×10⁻⁶ cm/s
[1]; Caco-2, text summary, no BSA, over the concentrations tested, read-out: total recovery rate AP→BL
  recovery at 2 h: 35.8 to 52.4%
[1]; Caco-2, text summary, no BSA, over the concentrations tested, read-out: total recovery rate BL→AP
  recovery at 2 h: 25.9 to 53%
P-gp
  substrate of P-gp: not a substrate of P-gp
[2]; intravenous (IV) bolus
  half-life: ~ 22 min
[2]
  detection in the brain: not the case in rats
  tissue with the highest concentration level (liver): same as in rats
[3]; 1.0 μg·mL^−1, 37 °C
  Stability: 94.69 ± 5.37%
[3]; 100 μg·mL^−1, 37 °C
  Stability: 98.39 ± 2.25%
[3]; 400 μg·mL^−1, 37 °C
  Stability: 97.63 ± 5.91%
[4]; 1 h after intravenous injection
  concentration in different organs: concentration in the liver and bile was higher compared with other organs; also recorded: Lung, kidney, spleen, stomach, excrement, and urine contained moderate amounts; also recorded: highest 2,5-BHPA concentration level was detected in the liver
[4]; 60 min after intravenous injection
  detection in the brain: detected in the brain
